Test results from patent publication US20090281054A1, “COMPOSITIONS AND METHODS COMPRISING CAPURAMYCIN ANALOGUES” (priority 2008, published 2009).
≈ marks a conversion by molar mass, not a printed value. Like-named read-outs stand apart in the source and are kept apart here.

Columns and labels:
[1] = tested on: M. kansaii (MKN; ATCC12478 & 35775); assay: MIC by microdilution method in 7H9 broth; type: cell-based, M. kansasii; settings: Mycobacterium kansasii, read-out: MIC
[2] = tested on: Mycobacterium tuberculosis (MTB); assay: MIC by BACTEC radiometric method; type: cell-based; settings: for MIC90: MTB
Procedure: Determination of MIC. MIC of drugs for laboratory and clinical strains of Mycobacterium tuberculosis (MTB) was determined by BACTEC radiometric method as described by Heifets (1991), “Antituberculosis Drugs: Antimicrobial Activity in vitro, Drug Susceptibility in the Chemotherapy of Microbacterial Infections, Boca Raton, Fla., CRC Press and Luna-Herrera et al., Antimicrob. Agents and Chemother. 1995, 39(2), 440-444. […] The minimal inhibitory concentration (MIC) was defined as the lowest concentrations of drug that caused GI equal to or less than that of the 1/100 dilution growth control. Capuramycin analogues SQ641, SQ922 and SQ997 were tested at concentrations ranging from […].

MTB inside macrophages = assay: Intracellular activity of DMSO-solubilized drug in MTB infected macrophages; type: cell-based, Mycobacterium tuberculosis; settings: for Mean RLU at Day 7: Day 0 RLU 443, Control Day 7 4251
MTB cultures = assay: Induction of morphological changes and bacterial disintegration; type: cell-based, Mycobacterium tuberculosis; settings: for Turbidity of MTB cultures: within 2 days of exposure
Source text: Induction of morphological changes and bacterial disintegration. […] Tubercle bacilli exposed to CM analogues were typically club-shaped, with deeply stained swollen ends (see Reddy et al. Antimicrob. Agents Chemother., 2008, 52(2), 719-721).

translocase I = translocase I (Escherichia coli, UniProt P0A6W3); assay: IC50 against translocase I; type: biochemical
M. avium complex (MAC) = assay: MIC by microdilution method in 7H9 broth; type: cell-based; settings: Mycobacterium avium; for MIC90: value in square brackets, read-out: MIC90
[3] = tested on: M. smegmatis (MSMG; MC2155); assay: MIC by microdilution method in 7H9 broth; type: cell-based; settings: MSMG MC^2155, 72 hr
MTB = assay: In vivo efficacy in mouse model of chronic TB disease (lung CFU); settings: mice treated for 3 wk, starting 3 wk after infection, gav, ip, iv
Procedure: In vivo activity against MTB. In vivo efficacy of CM analogues was investigated in a mouse model of chronic TB disease (FIG. 2). Three wk after infection, mice were treated for 3 wk with the drugs by gavage (gav), intraperitoneal injection (ip), intravenous injection (iv), or intranasal (in) routes. Efficacy was analyzed by determining Colony-Forming Units (CFU) in lungs. […] Each achieved a decrease of 1-log10 lung CFU compared to the late control [LC] CFU by at least one route, which varied for each drug.

[4] = tested on: M. abscessus (MAB; ATCC 700869); assay: MIC by microdilution method in 7H9 broth; type: cell-based; settings: Mycobacteroides abscessus, ATCC700869; MAB 700869; read-out: MIC
MSMG and MTB (H37Rv) = assay: Minimum bactericidal concentration (MBC), MBC/MIC ratio; type: cell-based, Mycobacterium tuberculosis; M. smegmatis
in vitro = type: cell-based; settings: mouse
Procedure: (§1) The SQ997 amino acid derivatives shown in Table 2 were tested for in vitro activity against MTB, cytotoxicity for uninfected J774 cells to determine IC50, and for intracellular activity in the macrophage assay (Table 15). […] Cell viability remained similar to SQ997, or slightly better as cell morphologic changes were reduced.

MTB H37Rv = assay: MIC by broth microdilution; type: cell-based; settings: Mycobacterium tuberculosis
Procedure: as §1

[5] = ATCC 12478 / ATCC 35775, MKN ATCC35775
[6] = MAC strain NIH C1-1, read-out: MIC
[7] = MAC strain NIH C1-2, read-out: MIC
[8] = MAC strain NIH C1-3, read-out: MIC
[9] = MAC strain NIH C1-4, read-out: MIC
[10] = Mycolicibacterium smegmatis, MC2155|MC^2155, read-out: MIC

Chain of translocase I (P0A6W3 whole entry): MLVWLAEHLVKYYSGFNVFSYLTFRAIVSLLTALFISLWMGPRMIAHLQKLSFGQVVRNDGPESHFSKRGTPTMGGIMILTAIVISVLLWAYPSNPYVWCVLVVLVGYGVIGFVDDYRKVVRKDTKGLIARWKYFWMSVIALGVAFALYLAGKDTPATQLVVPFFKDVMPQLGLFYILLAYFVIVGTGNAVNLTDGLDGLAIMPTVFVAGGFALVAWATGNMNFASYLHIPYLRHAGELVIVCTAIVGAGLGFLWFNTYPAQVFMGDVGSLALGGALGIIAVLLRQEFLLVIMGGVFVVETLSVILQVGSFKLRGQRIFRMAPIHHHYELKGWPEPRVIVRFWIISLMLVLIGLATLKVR

## CO[C@H]1[C@@H](O)[C@H](n2ccc(=O)[nH]c2=O)O[C@@H]1[C@@H](O[C@H]1OC(C(=O)Nc2ccc(F)c(F)c2)=C[C@H](O)[C@@H]1O)C(N)=O [SQ922]
4-day IV injections at 500 mg/kg/day
  Toxicity: No toxicity
[1]; [5]
  MIC: 1 mg/L (≈ 1.75 µM)
[1]; MKN ATCC12478
  MIC: 16 mg/L (≈ 28 µM)
[2]; H37RV, MTB strain H37Rv
  MIC: 2 mg/L (≈ 3.51 µM)
[2]
  MIC90: 8 mg/L (≈ 14 µM)
[2]; MTB strain 16
  MIC: 8 mg/L (≈ 14 µM)
[2]; MTB strain 113
  MIC: 2 mg/L (≈ 3.51 µM)
[2]; MTB strain 158
  MIC: 2 mg/L (≈ 3.51 µM)
[2]; MTB strain 606
  MIC: 4 mg/L (≈ 7.01 µM)
[2]; MTB strain 847
  MIC: 4 mg/L (≈ 7.01 µM)
[2]; MTB strain 1351
  MIC: 2 mg/L (≈ 3.51 µM)
[2]; MTB strain 1407
  MIC: 2 mg/L (≈ 3.51 µM)
[2]; MTB strain 1498
  MIC: 4 mg/L (≈ 7.01 µM)
[2]; MTB strain 1665
  MIC: 4 mg/L (≈ 7.01 µM)
[2]; MTB strain 1703
  MIC: 8 mg/L (≈ 14 µM)
[2]; MTB strain 1760
  MIC: 8 mg/L (≈ 14 µM)
[2]; MTB strain 1782
  MIC: 8 mg/L (≈ 14 µM)
[2]; MTB strain 1901
  MIC: 4 mg/L (≈ 7.01 µM)
[2]; MTB strain 1921
  MIC: 4 mg/L (≈ 7.01 µM)
[2]; MTB strain 2224
  MIC: 4 mg/L (≈ 7.01 µM)
[2]; MTB strain 2554
  MIC: 4 mg/L (≈ 7.01 µM)
[2]; MTB strain 2693
  MIC: 4 mg/L (≈ 7.01 µM)
[2]; MTB strain 8266
  MIC: 2 mg/L (≈ 3.51 µM)
[2]; MTB strain 8642
  MIC: 2 mg/L (≈ 3.51 µM)
MTB inside macrophages; 2 μg/ml
  Mean RLU at Day 7: 1164 RLU
MTB inside macrophages; 4 μg/ml
  Mean RLU at Day 7: 1080 RLU
MTB inside macrophages; 8 μg/ml
  Mean RLU at Day 7: 1111 RLU
MTB inside macrophages; 16 μg/ml
  Mean RLU at Day 7: 496 RLU
MTB inside macrophages; 32 μg/ml
  Mean RLU at Day 7: 311 RLU
MTB inside macrophages; 64 μg/ml
  Mean RLU at Day 7: 134 RLU
MTB inside macrophages; 1× and 2× MIC
  Intracellular activity (FIG. 1): showed intracellular activities
MTB cultures
  Bacterial disintegration / clearance of MTB cultures: rapid bacterial disintegration
  Turbidity of MTB cultures: marked fall in the turbidity
Translocase I
  IC50 against translocase I: 0.009 mg/L (≈ 0.0158 µM)
M. avium complex (MAC); MAC strain 100, read-out: MIC
  MIC: 4 mg/L (≈ 7.01 µM)
M. avium complex (MAC); MAC strain 101, read-out: MIC
  MIC: 1 mg/L (≈ 1.75 µM)
M. avium complex (MAC); MAC strain 104, read-out: MIC
  MIC: 4 mg/L (≈ 7.01 µM)
M. avium complex (MAC); MAC strain 109, read-out: MIC
  MIC: 0.5 mg/L (≈ 0.876 µM)
M. avium complex (MAC); MAC strain A5, read-out: MIC
  MIC: 2 mg/L (≈ 3.51 µM)
M. avium complex (MAC); MAC strain JSH1, read-out: MIC
  MIC: 16 mg/L (≈ 28 µM)
M. avium complex (MAC); [6]
  MIC: > 32 mg/L
M. avium complex (MAC); [7]
  MIC: 1 mg/L (≈ 1.75 µM)
M. avium complex (MAC); [8]
  MIC: 8 mg/L (≈ 14 µM)
M. avium complex (MAC); [9]
  MIC: 2 mg/L (≈ 3.51 µM)
M. avium complex (MAC); MAC isolates
  MIC90: 16 mg/L (≈ 28 µM)
[3]
  MIC: 2 mg/L (≈ 3.51 µM)
[3]; [10]
  MIC: 2 mg/L (≈ 3.51 µM)
MTB
  Routes by which replication of MTB in lungs was prevented (vs early control): most routes
[4]
  MIC: 16 mg/L (≈ 28 µM)
MSMG and MTB (H37Rv)
  MBC/MIC ratio: 1

## CO[C@H]1[C@@H](O)[C@H](n2ccc(=O)[nH]c2=O)O[C@@H]1[C@@H](O[C@H]1OC(C(=O)N[C@H]2CCC[C@@H](C)NC2=O)=C[C@H](O)[C@@H]1O)C(N)=O [SQ997]
In vitro
  IC50: > 32 mg/L
4-day IV injections at 1000 mg/kg/day
  Toxicity: No toxicity
[1]; [5]
  MIC: 4 mg/L (≈ 6.85 µM)
[1]; MKN ATCC12478
  MIC: 16 mg/L (≈ 27.4 µM)
[2]; H37RV, MTB strain H37Rv
  MIC: 8 mg/L (≈ 13.7 µM)
[2]
  MIC90: 16 mg/L (≈ 27.4 µM)
[2]; MTB strain 16
  MIC: 16 mg/L (≈ 27.4 µM)
[2]; MTB strain 113
  MIC: 16 mg/L (≈ 27.4 µM)
[2]; MTB strain 158
  MIC: 8 mg/L (≈ 13.7 µM)
[2]; MTB strain 606
  MIC: 16 mg/L (≈ 27.4 µM)
[2]; MTB strain 847
  MIC: 16 mg/L (≈ 27.4 µM)
[2]; MTB strain 1351
  MIC: 16 mg/L (≈ 27.4 µM)
[2]; MTB strain 1407
  MIC: 16 mg/L (≈ 27.4 µM)
[2]; MTB strain 1498
  MIC: 16 mg/L (≈ 27.4 µM)
[2]; MTB strain 1665
  MIC: 16 mg/L (≈ 27.4 µM)
[2]; MTB strain 1703
  MIC: 16 mg/L (≈ 27.4 µM)
[2]; MTB strain 1760
  MIC: > 16 mg/L
[2]; MTB strain 1782
  MIC: > 16 mg/L
[2]; MTB strain 1901
  MIC: 16 mg/L (≈ 27.4 µM)
[2]; MTB strain 1921
  MIC: 16 mg/L (≈ 27.4 µM)
[2]; MTB strain 2224
  MIC: 16 mg/L (≈ 27.4 µM)
[2]; MTB strain 2554
  MIC: 16 mg/L (≈ 27.4 µM)
[2]; MTB strain 2693
  MIC: 16 mg/L (≈ 27.4 µM)
[2]; MTB strain 8266
  MIC: 8 mg/L (≈ 13.7 µM)
[2]; MTB strain 8642
  MIC: 16 mg/L (≈ 27.4 µM)
MTB H37Rv
  MIC: 8 mg/L (≈ 13.7 µM)
MTB cultures
  Bacterial disintegration / clearance of MTB cultures: rapid bacterial disintegration
  Turbidity of MTB cultures: marked fall in the turbidity
Translocase I
  IC50 against translocase I: 0.01 mg/L (≈ 0.0171 µM)
M. avium complex (MAC); 336 h, MAC isolates, 2 wk, read-out: MIC (range)
  MIC: 4 to 32 mg/L (≈ 6.85 to 54.8 µM)
M. avium complex (MAC); MAC strain 100, read-out: MIC
  MIC: 16 mg/L (≈ 27.4 µM)
M. avium complex (MAC); MAC strain 101, read-out: MIC
  MIC: 8 mg/L (≈ 13.7 µM)
M. avium complex (MAC); MAC strain 104, read-out: MIC
  MIC: 16 mg/L (≈ 27.4 µM)
M. avium complex (MAC); MAC strain 109, read-out: MIC
  MIC: 8 mg/L (≈ 13.7 µM)
M. avium complex (MAC); MAC strain A5, read-out: MIC
  MIC: 16 mg/L (≈ 27.4 µM)
M. avium complex (MAC); MAC strain JSH1, read-out: MIC
  MIC: 32 mg/L (≈ 54.8 µM)
M. avium complex (MAC); [6]
  MIC: 8 mg/L (≈ 13.7 µM)
M. avium complex (MAC); [7]
  MIC: 4 mg/L (≈ 6.85 µM)
M. avium complex (MAC); [8]
  MIC: 16 mg/L (≈ 27.4 µM)
M. avium complex (MAC); [9]
  MIC: 8 mg/L (≈ 13.7 µM)
M. avium complex (MAC); MAC isolates
  MIC90: 16 mg/L (≈ 27.4 µM)
[3]
  MIC: 8 mg/L (≈ 13.7 µM)
[3]; [10]
  MIC: 8 mg/L (≈ 13.7 µM)
MTB
  Routes by which replication of MTB in lungs was prevented (vs early control): gav and iv
[4]
  MIC: 16 mg/L (≈ 27.4 µM)
MSMG and MTB (H37Rv)
  MBC/MIC ratio: 1
